# Data reported in ChEMBL document CHEMBL5360564, “Small molecule LpxC inhibitors against gram-negative bacteria: Advances and future perspectives” (Eur J Med Chem, 2023).
# What was measured:
# Escherichia coli [1] = assay: Antibacterial activity against Escherichia coli MB4926 assessed as bacterial growth inhibition; type: functional
# Escherichia coli [2] = assay: Antibacterial activity against Escherichia coli MB5500 assessed as bacterial growth inhibition; type: functional
# Escherichia coli [3] = assay: Antibacterial activity against wild type Escherichia coli W3110 assessed as bacterial growth inhibition measured after 22 hrs by MTT assay; type: functional
# Escherichia coli [4] = assay: Antibacterial activity against Escherichia coli D21 assessed as bacterial growth inhibition measured after 20 hrs by checkerboard method; type: functional
# [5] = target: T1, UDP-3-O-acyl-N-acetylglucosamine deacetylase (Escherichia coli K-12, UniProt P0A725); assay: Inhibition of Escherichia coli LpxC assessed as inhibition constant measured after 30 mins by fluorescence based microplate assay
# T1 sequence (P0A725 whole entry): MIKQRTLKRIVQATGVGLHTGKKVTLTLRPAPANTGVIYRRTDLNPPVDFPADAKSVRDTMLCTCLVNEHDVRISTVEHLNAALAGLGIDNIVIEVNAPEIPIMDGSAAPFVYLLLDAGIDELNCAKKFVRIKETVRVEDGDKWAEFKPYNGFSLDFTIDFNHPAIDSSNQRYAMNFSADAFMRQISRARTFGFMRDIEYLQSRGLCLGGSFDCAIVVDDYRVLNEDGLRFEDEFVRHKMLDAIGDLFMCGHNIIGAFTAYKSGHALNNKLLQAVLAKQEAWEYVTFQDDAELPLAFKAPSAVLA
# Pseudomonas aeruginosa [6] = assay: Antibacterial activity against Pseudomonas aeruginosa clinical isolate assessed as bacterial growth inhibition by microdilution assay; type: functional
# [7] = target: T2, UDP-3-O-acyl-N-acetylglucosamine deacetylase (Pseudomonas aeruginosa, UniProt B5ATN6); assay: Inhibition of recombinant Pseudomonas aeruginosa LpxC expressed in Escherichia coli
# T2 sequence (B5ATN6 whole entry): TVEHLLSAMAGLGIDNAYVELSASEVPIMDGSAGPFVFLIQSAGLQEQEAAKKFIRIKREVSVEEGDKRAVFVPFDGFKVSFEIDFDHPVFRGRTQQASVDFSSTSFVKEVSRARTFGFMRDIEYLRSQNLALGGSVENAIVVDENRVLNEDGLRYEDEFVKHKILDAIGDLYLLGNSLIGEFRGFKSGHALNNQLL
# Escherichia coli [8] = assay: Antibacterial activity against Escherichia coli assessed as bacterial growth inhibition two-fold microdilution; type: functional
# [9] = target: T1, UDP-3-O-acyl-N-acetylglucosamine deacetylase; assay: Inhibition of Escherichia coli LpxC
# Klebsiella pneumoniae = assay: Antibacterial activity against Klebsiella pneumoniae assessed as bacterial growth inhibition two-fold microdilution; type: functional
# Escherichia coli [10] = assay: Antibacterial activity against Escherichia coli CMCC 44568 assessed as bacterial growth inhibition measured after 22 hrs; type: functional
# Pseudomonas aeruginosa [11] = assay: Antibacterial activity against Pseudomonas aeruginosa CMCC 10104 assessed as bacterial growth inhibition measured after 22 hrs; type: functional
# Pseudomonas aeruginosa [12] = assay: Antibacterial activity against Pseudomonas aeruginosa CMCC 27853 assessed as bacterial growth inhibition measured after 22 hrs; type: functional
# Escherichia coli [13] = assay: Antibacterial activity against Escherichia coli CMCC 25922 assessed as bacterial growth inhibition measured after 22 hrs; type: functional
# Pseudomonas aeruginosa [14] = assay: Antibacterial activity against Pseudomonas aeruginosa PA14 assessed as bacterial growth inhibition measured after 18 hrs by broth microdilution assay; type: functional
# Escherichia coli [15] = assay: Antibacterial activity against Escherichia coli DH5alpha assessed as bacterial growth inhibition measured after 18 hrs by broth microdilution assay; type: functional
# Pseudomonas aeruginosa [16] = assay: Antibacterial activity against Pseudomonas aeruginosa PAO1 assessed as bacterial growth inhibition measured after 18 hrs by broth microdilution assay; type: functional
# Pseudomonas aeruginosa [17] = assay: Antibacterial activity against Pseudomonas aeruginosa HER 1018 assessed as bacterial growth inhibition by twofold dilution method; type: functional
# [18] = target: T3, UDP-3-O-acyl-N-acetylglucosamine deacetylase (Aquifex aeolicus (strain VF5), UniProt O67648); assay: Inhibition of Aquifex aeolicus LpxC transformed in Escherichia coli BL21(DE3) pLysS cells
# T3 sequence (O67648 whole entry): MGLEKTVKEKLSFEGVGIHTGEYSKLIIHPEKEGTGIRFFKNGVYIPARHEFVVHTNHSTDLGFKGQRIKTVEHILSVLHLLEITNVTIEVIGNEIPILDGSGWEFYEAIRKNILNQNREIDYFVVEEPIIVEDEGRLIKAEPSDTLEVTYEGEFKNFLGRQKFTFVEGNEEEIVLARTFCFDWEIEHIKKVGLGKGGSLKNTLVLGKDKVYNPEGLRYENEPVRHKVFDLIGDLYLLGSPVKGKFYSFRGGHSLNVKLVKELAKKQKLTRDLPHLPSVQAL
smiles,measurement,setting,value
CCCc1cc(C2=N[C@@H](C(=O)NO)CO2)cc(OC)c1OC,MIC,Escherichia coli [1],1 µg/mL
same,MIC,Escherichia coli [2],1 µg/mL
C[C@@H](O)[C@H](NC(=O)c1ccc(C#CC#Cc2ccccc2)cc1)C(=O)NO,MIC,Escherichia coli [3],0.05 µg/mL
O=C(NO)[C@@H](Cc1ccc2ccccc2c1)NS(=O)(=O)c1ccc2ccccc2c1,MIC,Escherichia coli [4],2 µg/mL
O=C(NO)C1(COc2ccc(C#Cc3ccc(CN4CCOCC4)cc3)cc2)CCOCC1,Ki,[5],352 nM
CC(C)(N)[C@H](NC(=O)c1ccc(C#CC#CC2CC2)cc1)C(=O)NO,MIC,Pseudomonas aeruginosa [6],0.16 µg/mL
same,IC50,[7],0.62 nM
C[C@H](O)c1nccn1Cc1cc(-c2ccc(C#C[C@@H]3[C@H]4CN(CCCC(=O)O)C[C@@H]34)cc2)on1,MIC,Escherichia coli [8],2 µg/mL
same,IC50,[9],101 nM
same,MIC,Klebsiella pneumoniae,2 µg/mL
N=C(N)N/N=C/c1ccc(C#Cc2ccc(Cl)cc2)cc1,MIC,Escherichia coli [10],2 µg/mL
same,MIC,Pseudomonas aeruginosa [11],1 µg/mL
same,MIC,Pseudomonas aeruginosa [12],> 128 µg/mL
same,MIC,Escherichia coli [13],2 µg/mL
CC(C)(N)[C@H](NC(=O)c1ccc(C#CC#C[C@H](O)CO)cc1)C(=O)NO,MIC,Pseudomonas aeruginosa [6],3.5 µg/mL
same,IC50,[7],19 nM
O=c1ccn([C@@H]2O[C@H](CO/N=C/c3ccc(O)c(O)c3O)[C@@H](O)[C@H]2O)c(=O)[nH]1,IC50,[9],27000 nM
COC1([C@H](NC(=O)c2ccc(C#CC#CCCO)cc2)C(=O)NO)CS(=O)(=O)C1,MIC,Pseudomonas aeruginosa [6],2.3 µg/mL
C[C@@H](O)[C@](C)(NC(=O)c1ccc(C#CC#Cc2ccc(N)cc2)cc1)C(=O)NO,MIC,Escherichia coli [3],0.24 µg/mL
CC(C)(N)[C@H](NC(=O)c1ccc(C#CC#C[C@@H](O)CO)cc1)C(=O)NO,MIC,Pseudomonas aeruginosa [6],8.8 µg/mL
same,IC50,[7],12 nM
N=C(N)N/N=C/c1ccc(C#CC#Cc2ccccc2Cl)cc1,MIC,Escherichia coli [10],64 µg/mL
same,MIC,Pseudomonas aeruginosa [11],4 µg/mL
same,MIC,Pseudomonas aeruginosa [12],> 128 µg/mL
same,MIC,Escherichia coli [13],8 µg/mL
O=C(CO/N=C/c1ccc(O)c(O)c1O)NC[C@H]1O[C@@H](n2ccc(=O)[nH]c2=O)[C@H](O)[C@@H]1O,IC50,[9],120000 nM
O=C(C[C@@H]1CN(c2ccc(C#Cc3ccccc3)cc2)CO1)NO,MIC,Pseudomonas aeruginosa [14],10 µg/mL
same,MIC,Escherichia coli [15],1.25 µM
same,MIC,Pseudomonas aeruginosa [16],1.25 µg/mL
CS(=O)(=O)[C@](F)(CCc1ccc(-c2ccccc2)cc1)C(=O)NO,MIC,Pseudomonas aeruginosa [17],12.5 µg/mL
CCCCCC(=O)O[C@@H]1[C@@H](CP(C)(=O)O)CO[C@H](CO)[C@H]1O,IC50,[18],192 nM
